This passage reports MIC results from ChEMBL document CHEMBL1130699, “Coprophilin: an anticoccidial agent produced by a dung inhabiting fungus” (1998).

Each structure is given as a SMILES string. Converted amounts (≈) assume the structure as drawn. The source made the active and inactive calls. The calls are words filed in the database; no cut-off is given here.

Assay [1] has as its system MDBK441. Put plainly: Compound was tested for inhibition of the growth of Eimeria tenella in MDBK 441 cell line. In kind it is functional. The settings on record: Bos taurus.
Assay [2] relates to MDBK441. Put plainly: Compound was tested for inhibition of the growth of Eimeria tenella in MDBK 441 cell line up to concentration 25 uM; no inhibition. In kind it is functional, cell-based. The settings on record: Bos taurus.

`COC(=O)/C=C/C=C/[C@@H]1[C@H]2[C@H](C)[C@@H](O)C(C)C[C@]2(C)C=C[C@@H]1C` (stereo partly drawn) registered an MIC in assay [1] of 1.5 µM (≈ 0.478 µg/mL). Consider `CC1C[C@]2(C)C=C[C@H](C)[C@H](/C=C/C=C/C(=O)O)[C@H]2[C@H](C)[C@H]1O` (stereo partly drawn), for which the MIC result in assay [2] was “inactive”. Still for that read-out and setting: the result for `COC(=O)CCCC[C@@H]1[C@H]2[C@H](C)[C@@H](O)C(C)C[C@]2(C)CC[C@@H]1C` (stereo partly drawn) reads “inactive”.
